Where “and” joins values, the source holds several entries; their conditions need not be identical. Equal entries are not always repeated. Where two headings read alike, the source gives them in different places. Ends that are not written are not given here.
Experiments:
HIV-2Rod = experiment: Syncytia formation blockage (chronically infected cells + uninfected Molt-4 cells); format: cell-based; design: key: -: The presence of syncytia is indicated by + signs, allocated in approximate proportion to the quantities counted; The presence of syncytia is indicated by + signs, allocated in approximate proportion to the quantities counted; ++: The presence of syncytia is indicated by + signs, allocated in approximate proportion to the quantities counted; +++: The presence of syncytia is indicated by + signs, allocated in approximate proportion to the quantities counted; ++++: The presence of syncytia is indicated by + signs, allocated in approximate proportion to the quantities counted
Description: (§1) CEM or C8166 cells were chronically infected with HIV-1 Lai or HIV-2 Rod, or HIV-1MN, respectively. Infected cells (1×10^4) were incubated for 2 hours with various concentrations of MBPCs in 96-well plates. Uninfected Molt-4 cells (4×10^4) were then added in […]. Syncytia were counted after 18 hours at 37° C.

HIV-1MN = experiment: as above; format: cell-based; design: key: -: The presence of syncytia is indicated by + signs, allocated in approximate proportion to the quantities counted; The presence of syncytia is indicated by + signs, allocated in approximate proportion to the quantities counted; ++: The presence of syncytia is indicated by + signs, allocated in approximate proportion to the quantities counted; +++: The presence of syncytia is indicated by + signs, allocated in approximate proportion to the quantities counted; ++++: The presence of syncytia is indicated by + signs, allocated in approximate proportion to the quantities counted
Description: as §1

HIV-1Lai = experiment: as above; format: cell-based; design: key: -: The presence of syncytia is indicated by + signs, allocated in approximate proportion to the quantities counted; The presence of syncytia is indicated by + signs, allocated in approximate proportion to the quantities counted; ++: The presence of syncytia is indicated by + signs, allocated in approximate proportion to the quantities counted; +++: The presence of syncytia is indicated by + signs, allocated in approximate proportion to the quantities counted; ++++: The presence of syncytia is indicated by + signs, allocated in approximate proportion to the quantities counted
Description: as §1

New Zealand rabbits = experiment: Immunogenicity in rabbits (serum ELISA for anti MBPC.3 antibodies); format: in vivo, rabbit; conditions: coat GPGRAF monomer 10 μg/ml
Description: […] This procedure was repeated subcutaneously with incomplete Freud's adjuvant on days 30, 60, 90 and 120. Sera were tested by ELISA, looking for specific anti MBPC.3 antibodies. Data presented here is from the last serum samples (120+7 days).
(§2) […] After saturation with 400 μL of casein (5 g/100 ml), different serum dilutions were added for 2 hours at 37° C. The controls were sera from non-immunized rabbits and mice. After rinsing (5×), 50 μl of 1:5000 of peroxidase-labeled swine anti-rabbit IgG or anti-mouse IgG (Dakopatts, Copenhagen, Denmark) were added for 1 hour at 37° C. After further rinsing (5×), 100 μl of ortho-phenylenediamine were added for 30 min in the dark at room temperature. The reaction was stopped by adding 50 μl of 4N sulfuric acid, and optical density (OD) ratios were determined at 492/620 nm.

C57/BL6 black mice = experiment: Immunogenicity in mice (serum ELISA for anti-MBPC3 antibody); format: in vivo, mouse; conditions: coat GPGRAF monomer 10 μg/ml, listed as Mo
Description: The injection route was intraperitoneal. The blood samples were collected by sub-orbital eye punction. The blood samples were left for 1 hour at 37° C., then overnight at 4° C., and the supernatants (serum samples) thus obtained were separated from the pellets. Sera were tested by ELISA, looking for specific anti-MBPC3 antibody.
as §2

HIV-1 (IIIB) = format: cell-based; conditions: for number of syncytia (HIV-1 induced cell fusion): 24 hours
Source text: 50×10^3 8E5 cells chronically infected with a RT-deficient HIV-I (IIIB) isolate, were co-cultivated with 150×10^3 phytohemagglutinin (PHA) stimulated human peripheral blood lymphocytes (PBLs) in the presence of the indicated peptide in 96-well plates. The MBPCs used are described by the peptides attached, and the number thereof, to a core lysine matrix, which is designated HLC. All amino acids used for this experiment were in dextro form.

HIV-1 (89.6) = experiment: Infection of and syncytia formation in human primary macrophages; format: cell-based; conditions: 5×10^-5 M; 10,000 TCID50
Description: MBPCs were also evaluated for their ability to block the infection of human primary macrophages by a highly cytopathic macrophage-tropic isolate, HIV-1 (89.6). Mononuclear cells were isolated from leukophoresis units enriched for monocytes by Ficoll-Hypaque density separation. Macrophages were purified by adherence to plastic in RPMI 1640 supplemented with 10% fetal calf serum and 5% human AB serum. […] 5×10^5 cells were treated for 45 minutes with the indicated MBPC at concentrations of 5×10^-5 M and subsequently exposed to 10,000 TCID50 of the macrophage-tropic isolate HIV (89.6). […] After thorough washing, the cells were fed again with medium and analyzed for HIV-1 p24^gag production and syncytia formation 4 days post-infection.

8E5 cells = experiment: Toxicity in the cell fusion test (MTT assay or trypan blue exclusion); format: cell-based; conditions: 5 × 10^-5 M

## (IGPGRAF)4 -(K)2 -K-βA-OH (also: four copies on lysine core (K)2-K-βA-OH) [MBPC.4]
HIV-2Rod; MBPC Conc. 5 × 10^-6 M
  Syncytia formation: ++++
HIV-2Rod; MBPC Conc. 10^-6 M
  Syncytia formation: ++++
HIV-2Rod; MBPC Conc. 10^-7 M
  Syncytia formation: ++++
HIV-1MN; MBPC Conc. 5 × 10^-6 M
  Syncytia formation: ++++
HIV-1MN; MBPC Conc. 10^-6 M
  Syncytia formation: ++++
HIV-1MN; MBPC Conc. 10^-7 M
  Syncytia formation: +++
HIV-1Lai; MBPC Conc. 5 × 10^-6 M
  Syncytia formation: +++
HIV-1Lai; MBPC Conc. 10^-6 M
  Syncytia formation: ++++
HIV-1Lai; MBPC Conc. 10^-7 M
  Syncytia formation: ++++

## GPGRAF [Mono.3, GPGRAF, reference compound]
New Zealand rabbits; plate 1, rabbit serum 10^-2
  optical density (OD) ratio 492/620 nm (×10^3): 2000
New Zealand rabbits; plate 1, rabbit serum 10^-3
  optical density (OD) ratio 492/620 nm (×10^3): 2000
New Zealand rabbits; plate 1, rabbit serum 10^-4, listed as Mo
  optical density (OD) ratio 492/620 nm (×10^3): 677 and 725
New Zealand rabbits; plate 2, rabbit serum 10^-2
  optical density (OD) ratio 492/620 nm (×10^3): 2000
New Zealand rabbits; plate 2, rabbit serum 10^-3, listed as Mo
  optical density (OD) ratio 492/620 nm (×10^3): 2000 and 1909
New Zealand rabbits; plate 2, rabbit serum 10^-4, listed as Mo
  optical density (OD) ratio 492/620 nm (×10^3): 588 and 625
New Zealand rabbits; plate 4, rabbit serum 10^-2
  optical density (OD) ratio 492/620 nm (×10^3): 811
New Zealand rabbits; plate 4, rabbit serum 10^-3, listed as Mo
  optical density (OD) ratio 492/620 nm (×10^3): 245 and 194
C57/BL6 black mice; plate 1, mouse serum 10^-2
  optical density (OD) ratio 492/620 nm (×10^3): 1224 and 1135
C57/BL6 black mice; plate 1, mouse serum 10^-3
  optical density (OD) ratio 492/620 nm (×10^3): 310 and 287
C57/BL6 black mice; plate 1, mouse serum 10^-4
  optical density (OD) ratio 492/620 nm (×10^3): 104 and 185
C57/BL6 black mice; plate 2, mouse serum 10^-2
  optical density (OD) ratio 492/620 nm (×10^3): 1539 and 1575
C57/BL6 black mice; plate 2, mouse serum 10^-3
  optical density (OD) ratio 492/620 nm (×10^3): 342 and 335
C57/BL6 black mice; plate 2, mouse serum 10^-4
  optical density (OD) ratio 492/620 nm (×10^3): 95 and 126
C57/BL6 black mice; plate 4, mouse serum 10^-2
  optical density (OD) ratio 492/620 nm (×10^3): 1231 and 1317
C57/BL6 black mice; plate 4, mouse serum 10^-3
  optical density (OD) ratio 492/620 nm (×10^3): 380 and 386
C57/BL6 black mice; plate 4, mouse serum 10^-4
  optical density (OD) ratio 492/620 nm (×10^3): 123 and 122

## RAFVTIGK [RAFVTIGK (SEQ ID NO:6), reference compound]
HIV-1 (IIIB); 5 × 10^-5 M
  number of syncytia (HIV-1 induced cell fusion): - (- indicates the total absence of syncytia in the well)
HIV-1 (IIIB); 5 × 10^-6 M
  number of syncytia (HIV-1 induced cell fusion): +++
HIV-1 (IIIB); 5 × 10^-7 M
  number of syncytia (HIV-1 induced cell fusion): +++

## [Ac-GPGRAF]8 -MLC (also: eight copies on MLC (multibranched lysine core)) [N-terminal acetylation]
HIV-1 (IIIB)
  inhibition of syncytia formation / cell fusion, in words: significant loss of activity
HIV-1 (IIIB); 5 × 10^-5 M
  number of syncytia (HIV-1 induced cell fusion): - (- indicates the total absence of syncytia in the well)
HIV-1 (IIIB); 5 × 10^-6 M
  number of syncytia (HIV-1 induced cell fusion): +++
HIV-1 (IIIB); 5 × 10^-7 M
  number of syncytia (HIV-1 induced cell fusion): +++

## [GPG(R)D AF]8 -MLC
HIV-1 (IIIB); 5 × 10^-6 M
  number of syncytia (HIV-1 induced cell fusion): - (- indicates the total absence of syncytia in the well)
HIV-1 (IIIB); 5 × 10^-7 M
  number of syncytia (HIV-1 induced cell fusion): +++
HIV-1 (89.6)
  inhibition of macrophage infection, in words: significantly less active than [GPGRAF]8 -MLC

## [GPGRAF]8 -MLCD
HIV-1 (IIIB); 5 × 10^-5 M
  number of syncytia (HIV-1 induced cell fusion): +++
HIV-1 (IIIB); 5 × 10^-6 M
  number of syncytia (HIV-1 induced cell fusion): +++
HIV-1 (IIIB); 5 × 10^-7 M
  number of syncytia (HIV-1 induced cell fusion): +++
HIV-1 (89.6)
  inhibition of macrophage infection, in words: significantly less active than [GPGRAF]8 -MLC

## [GPGRA]8 -MLC
HIV-1 (IIIB)
  inhibition of syncytia formation / cell fusion, in words: did not inhibit cell fusion
HIV-1 (IIIB); 5 × 10^-5 M
  number of syncytia (HIV-1 induced cell fusion): +++
HIV-1 (IIIB); 5 × 10^-6 M
  number of syncytia (HIV-1 induced cell fusion): +++
HIV-1 (IIIB); 5 × 10^-7 M
  number of syncytia (HIV-1 induced cell fusion): +++

## [GPGR]8 -MLC
HIV-1 (IIIB)
  inhibition of syncytia formation / cell fusion, in words: did not inhibit cell fusion
HIV-1 (IIIB); 5 × 10^-5 M
  number of syncytia (HIV-1 induced cell fusion): +++
HIV-1 (IIIB); 5 × 10^-6 M
  number of syncytia (HIV-1 induced cell fusion): +++
HIV-1 (IIIB); 5 × 10^-7 M
  number of syncytia (HIV-1 induced cell fusion): +++

## [IGPGRAF]8 -MLC (also: octameric multibranched MLC construct)
HIV-1 (IIIB)
  inhibition of syncytia formation / cell fusion, in words: significant loss of activity
HIV-1 (IIIB); 5 × 10^-5 M
  number of syncytia (HIV-1 induced cell fusion): - (- indicates the total absence of syncytia in the well)
HIV-1 (IIIB); 5 × 10^-6 M
  number of syncytia (HIV-1 induced cell fusion): ±
HIV-1 (IIIB); 5 × 10^-7 M
  number of syncytia (HIV-1 induced cell fusion): +++

## [RKSIHKGPGRAFYT]4 -MLC (also: tetrameric multibranched MLC construct)
HIV-1 (IIIB); 5 × 10^-6 M
  number of syncytia (HIV-1 induced cell fusion): - (- indicates the total absence of syncytia in the well)
HIV-1 (IIIB); 5 × 10^-7 M
  number of syncytia (HIV-1 induced cell fusion): +++
8E5 cells
  Toxicity: Toxic

## [RKSIHTGPGRAFYT]4 -MLC (also: tetrameric multibranched MLC construct)
HIV-1 (IIIB); 5 × 10^-6 M
  number of syncytia (HIV-1 induced cell fusion): - (- indicates the total absence of syncytia in the well)
HIV-1 (IIIB); 5 × 10^-7 M
  number of syncytia (HIV-1 induced cell fusion): +++
8E5 cells
  Toxicity: Toxic
